Experimental data published in article PMC9015527 (Chemistry (Weinheim an Der Bergstrasse, Germany), 2021).

Columns and labels:
[1] = tested on: SARS-CoV-2 isolate MUC-IMB-1/2020; type: cell-based
[2] = tested on: SARS-CoV-2 isolate MUC-IMB-1/2020; assay: microbe, parasite or virus in culture; type: cell-based
in vitro [3] = conditions: human, Caco-2
in vitro [4] = conditions: simian (monkey)

With CCN(CC)CCCC(C)Nc1ccnc2cc(Cl)ccc12 (stereo not shown) [CQ, chloroquine] the “SI (Vero 76, mAb-S)” value [1] was >32.3, the “SI (Vero 76, mAb-dsRNA)” value [2] was >14 and the EC50 ([2]; Severe acute respiratory syndrome coronavirus 2, Vero 76, read-out: EC50 (Vero 76, mAb-dsRNA)) was 2200 ± 900 nM. The “SI (Caco-2)” value (SARS-CoV-2 d6-YFP) was 3.2, the CC50 (in vitro [3]) was 41.7 ± 2.5 µM and the CC50 (in vitro [4]; CC50 (Vero 76, mAb-S)) was > 100 µM. The CC50 (in vitro [4]; CC50 (Vero 76, mAb-dsRNA)) was > 30 µM.
